From ChEMBL document CHEMBL4325927, “Synthesis, Anti-HBV, and Anti-HIV Activities of 3'-Halogenated Bis(hydroxymethyl)-cyclopentenyladenines” (ACS Med Chem Lett, 2018)

What was measured:
[1] = test system: Human immunodeficiency virus 1; assay: Antiviral activity against HIV-1 3B infected in human MT2 cells assessed as inhibition of virus-induced cytopathic effect after 7 days by MTT assay; type: functional, organism-based; conditions: Human immunodeficiency virus 1, 3B, MT2, 168 h
[2] = Cytotoxicity against human MT2 cells after 7 days by MTT assay; type: cell-based
HBV genotype D = assay: Antiviral activity against HBV genotype D infected in human HepG2.2.15 cells assessed as reduction in viral DNA level after 7 days by RT-PCR assay; type: functional, organism-based; conditions: Hepatitis B virus, HepG2.2.15, 168 h
[3] = Cytotoxicity against human HepG2.2.15 cells after 7 days by MTT assay; type: cell-based, HepG2 2.2.15
[4] = Selectivity index, ratio of CC50 for cytotoxicity against human HepG2.2.15 cells to EC50 for HBV genotype D infected in human HepG2.2.15 cells; type: toxicity, cell-based; conditions: read-out: Ratio CC50/EC50

Structure (SMILES) | EC50 (HBV genotype D) | EC50 [1] | CC50 at 168 h [2] | CC50 at 168 h [3] | selectivity ratio [4]
Nc1ncnc2c1ncn2[C@H]1C=C(Cl)[C@H](CO)[C@H]1CO | 0.146 µM | > 100 µM | > 100 µM | – | –
Nc1ncnc2c1ncn2[C@H]1C=C(Br)[C@H](CO)[C@H]1CO | 0.029 µM | > 100 µM | > 100 µM | > 100 µM | –
Nc1ncnc2c1ncn2[C@H]1C=C(F)[C@H](CO)[C@H]1CO | 0.019 µM | > 100 µM | > 100 µM | > 100 µM | 5260

Further molecules by falling EC50 (HBV genotype D), results first:

EC50 (HBV genotype D) | Structure (SMILES) | EC50 [1] | CC50 at 168 h [2] | CC50 at 168 h [3] | selectivity ratio [4]
0.436 µM | Nc1ncnc2c1ncn2[C@H]1C=C(I)[C@H](CO)[C@H]1CO | > 100 µM | > 100 µM | – | –
0.0457 µM | Nc1ncnc2c1ncn2[C@@H]1C=C[C@H](CO)[C@H]1CO | 0.77 µM | 153 µM | > 100 µM | –
0.0038 µM | C=C1[C@H](CO)[C@@H](O)C[C@@H]1n1cnc2c(=O)[nH]c(N)nc21 [ENTECAVIR] | – | – | 52.9 µM | –
